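Test compounds were applied to cells in 96-well plates for 48 hours at 5 doses. The concentration for 50% growth inhibition is given as GI50.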 Active and inactive are the calls of the source. Rule as the data show it: active = GI50 up to about 1.1 µM and inactive = higher. Starred links: 1 amine or outer side, 2 acyl side, 3 side chain; linkers in the order of their positions; H or OH if unused. Positions of bridges follow the written chain, without caps; N, C: chain ends. Non-standard residues stand in square brackets, D forms with d. Residues, ends and D or L forms follow the SMILES beside them. ξ: configuration not given here. X37 = CC[C@H](C)[C@@H](N[*:1])[C@@H](O)CC(=O)O[C@H](C(=O)[C@H](C)C(=O)[*:2])C(C)C; NMeY = CN[C@@H](Cc1ccc(O)cc1)C(=O)O; dNMeL = CN[C@H](CC(C)C)C(=O)O; ξΔPro = O=C(O)C1C=CCN1 Where only a bound is given, the exact number is not on record here.

Ten compounds from ChEMBL document CHEMBL1201862, “PubChem BioAssay data set” (2004) can be followed below.

Test systems include SN12C; MDA-MB-435; NCI-H460; MDA-N; LOX IMVI; HCT-15; SW-620; SK-MEL-2; 786-0; IGROV-1; EKVX; T47D; CAKI-1; MDA-MB-231; NCI-H23; KM12; OVCAR-3; UACC-62; M14; SF-539.
What all share (assay): NCI tumour cell line growth inhibition, 48 h

Consider `O=C(Cn1ccc(=O)[nH]c1=O)Nc1ccc(C(=O)O)c(O)c1`, for which the GI50 was > 100 µM (inactive) with SN12C; > 100 µM (inactive) in the assay with MDA-MB-435; > 100 µM (inactive) in the assay with NCI-H460; > 100 µM (inactive) with MDA-N; > 100 µM (inactive) in the assay on LOX IMVI; greater than 100 µM with HCT-15. For the same compound, the GI50 in the assay with SW-620, with SK-MEL-2, in the assay with 786-0, in the assay on IGROV-1, with EKVX and in the assay with T47D was > 100 µM (inactive) throughout. Also, the GI50 in the assay with CAKI-1, in the assay with MDA-MB-231, with NCI-H23, in the assay on KM12, in the assay on OVCAR-3 and in the assay with UACC-62 was > 100 µM (inactive) in each case. The GI50 in the assay with M14 was > 100 µM (inactive).

`NC(CSCc1ccccc1)C(=O)O` (stereo not given): the GI50 in the assay with SN12C is > 100 µM (inactive); in the assay with MDA-MB-435, > 100 µM (inactive); in the assay on NCI-H460 it was > 100 µM (inactive); in the assay on MDA-N it was > 100 µM (inactive); in the assay on LOX IMVI, > 100 µM (inactive); in the assay with HCT-15 it was greater than 100 µM. Further, the GI50 in the assay on SW-620, in the assay on SK-MEL-2, in the assay on 786-0, in the assay on IGROV-1, with EKVX and with T47D was > 100 µM (inactive) throughout. Also, the GI50 in the assay with CAKI-1, in the assay on MDA-MB-231, with NCI-H23, with KM12, with OVCAR-3 and in the assay on UACC-62 was > 100 µM (inactive) each time. In the assay on M14, the GI50 is > 100 µM (inactive).

As for `CCc1ccc(Nc2cc(=O)[nH]c(SCc3ccccc3)n2)cc1`, the GI50 in the assay on SN12C was > 100 µM (inactive); in the assay with MDA-MB-435, > 100 µM (inactive); in the assay on MDA-N it was > 100 µM (inactive); in the assay on LOX IMVI, > 100 µM (inactive); with HCT-15, greater than 100 µM; with SW-620, > 100 µM (inactive). The GI50 in the assay with SK-MEL-2 is > 100 µM (inactive); with 786-0 it was 43.6 µM (inactive); with IGROV-1, > 100 µM (inactive); in the assay with EKVX, 57.7 µM (inactive); with T47D it was > 100 µM (inactive); in the assay on CAKI-1, > 100 µM (inactive). Further, the GI50 with MDA-MB-231 was 4.17 µM (inactive); with NCI-H23 it was 61.5 µM (inactive); with KM12, > 100 µM (inactive); in the assay with OVCAR-3, 39.4 µM (inactive); with UACC-62, 48.8 µM (inactive); with M14 it was > 100 µM (inactive). Also, in the assay with SF-539, the GI50 was 52 µM (inactive).

For the compound `O=C1CSC(/C=C/c2ccccc2)N1c1ccc(-c2ccc(-n3c(-c4ccccc4)nc4ccccc4c3=O)cc2)cc1` (stereo not given), the GI50 is 27.4 µM (inactive) in the assay with SN12C; 19.4 µM (inactive) with MDA-MB-435; 30.7 µM (inactive) in the assay with NCI-H460; 23.4 µM (inactive) in the assay with MDA-N; 15.8 µM (inactive) in the assay on LOX IMVI; 20.7 µM in the assay with HCT-15. The GI50 is 19.4 µM (inactive) in the assay on SW-620; 19.1 µM (inactive) in the assay with SK-MEL-2; 13.4 µM (inactive) in the assay with 786-0; 20.1 µM (inactive) in the assay on IGROV-1; 15.5 µM (inactive) in the assay with EKVX; 15.2 µM (inactive) in the assay on T47D. The GI50 was 33.7 µM (inactive) with CAKI-1; 25.1 µM (inactive) in the assay on MDA-MB-231; 35.6 µM (inactive) in the assay on NCI-H23; 17.3 µM (inactive) in the assay on KM12; 21.2 µM (inactive) with OVCAR-3; 24.3 µM (inactive) in the assay with UACC-62. The GI50 with M14 is 16.9 µM (inactive).

Turning to `COc1cc(Cn2c3c(c4c(CN(C)C)c(O)ccc42)C(=O)c2ccccc2C3=O)cc(OC)c1`, the GI50 is 22.9 µM (inactive) with SN12C; 18.1 µM (inactive) with MDA-MB-435; 17.7 µM (inactive) in the assay on NCI-H460; 15.7 µM (inactive) in the assay on MDA-N; 16.6 µM (inactive) in the assay on LOX IMVI; 14 µM in the assay with HCT-15. Besides, the GI50 is 18.7 µM (inactive) in the assay with SW-620; 16.3 µM (inactive) with SK-MEL-2; 12.5 µM (inactive) with 786-0; 20 µM (inactive) in the assay on EKVX; 15.4 µM (inactive) in the assay with T47D; 13 µM (inactive) with CAKI-1. For the same compound, the GI50 is 17.7 µM (inactive) with MDA-MB-231; 15.7 µM (inactive) in the assay with NCI-H23; 26.4 µM (inactive) in the assay with KM12; 24.2 µM (inactive) in the assay on OVCAR-3; 23.1 µM (inactive) with UACC-62; 17.2 µM (inactive) with M14. In addition, the GI50 with SF-539 is 16.3 µM (inactive).

For the compound `COc1ccc(N2C(=O)CC(=O)N(C(=O)CCCCCCCCC(=O)N3C(=O)CC(=O)N(c4ccc(OC)cc4)C3=S)C2=S)cc1`, the GI50 in the assay on SN12C is > 100 µM (inactive); in the assay on MDA-MB-435, 61.1 µM (inactive); in the assay on NCI-H460 it was > 100 µM (inactive); in the assay on MDA-N, 57.4 µM (inactive); in the assay on LOX IMVI, 78.3 µM (inactive); with HCT-15, greater than 100 µM. The GI50 was > 100 µM (inactive) in the assay with SW-620; > 100 µM (inactive) with SK-MEL-2; > 100 µM (inactive) in the assay on 786-0; > 100 µM (inactive) in the assay with EKVX; 97.9 µM (inactive) in the assay on T47D; > 100 µM (inactive) in the assay on CAKI-1. The GI50 is > 100 µM (inactive) in the assay on MDA-MB-231; > 100 µM (inactive) in the assay with NCI-H23; 79.6 µM (inactive) in the assay with KM12; > 100 µM (inactive) in the assay with OVCAR-3; > 100 µM (inactive) in the assay with UACC-62; > 100 µM (inactive) in the assay with M14. The GI50 in the assay with SF-539 was > 100 µM (inactive).

Take `CC1C(OC2O[C@@H]3O[C@@]4(C)CC[C@H]5[C@H](C)CC[C@@H](C2C)[C@@]35O4)O[C@@H]2O[C@@]3(C)CC[C@H]4[C@H](C)CC[C@@H]1[C@@]24O3` (stereo not given in full): the GI50 is > 50 µM (inactive) in the assay on SN12C; > 50 µM (inactive) with MDA-MB-435; > 50 µM (inactive) in the assay on NCI-H460; > 50 µM (inactive) in the assay on MDA-N; > 50 µM (inactive) in the assay with LOX IMVI; greater than 50 µM in the assay with HCT-15. For the same compound, the GI50 in the assay with SW-620, in the assay with SK-MEL-2, in the assay with 786-0, in the assay on EKVX, with T47D and with CAKI-1 was > 50 µM (inactive) in each case. Further, the GI50 with MDA-MB-231, with NCI-H23, in the assay on KM12, in the assay with OVCAR-3, in the assay with UACC-62 and in the assay on M14 was > 50 µM (inactive) throughout. Besides, in the assay on SF-539, the GI50 is > 50 µM (inactive).

Regarding `CN(C)CC(NC(NCS)C(=O)NCCNc1ccc(NCCNC(=O)C(NCS)NC(CN(C)C)OCCl)c2c1C(=O)c1c(O)ccc(O)c1C2=O)OCCl` (stereo not given), the GI50 was 0.0311 µM (active) in the assay with SN12C; 0.151 µM (active) in the assay with MDA-MB-435; < 0.001 µM (active) in the assay with NCI-H460; 0.267 µM (active) in the assay with MDA-N; 0.0245 µM (active) with LOX IMVI; 0.13 µM in the assay with HCT-15. In addition, the GI50 in the assay with SW-620 is 0.00461 µM (active); in the assay on SK-MEL-2 it was 1.45 µM (inactive); in the assay on 786-0, 0.0552 µM (active); with IGROV-1, 0.145 µM (active); in the assay with EKVX, 0.228 µM (active); with T47D, 0.0327 µM (active). Besides, the GI50 in the assay with CAKI-1 is < 0.001 µM (active); in the assay on MDA-MB-231, 0.0547 µM (active); in the assay on NCI-H23, 0.00877 µM (active); in the assay with KM12, 0.172 µM (active); in the assay with OVCAR-3, 0.387 µM (active); in the assay on UACC-62 it was 0.0301 µM (active). In addition, the GI50 in the assay with M14 is 0.124 µM (active).

With `Cc1c(F)c(N)c2c(=O)cc(-c3ccc(NC(=O)CN(C)C)c(F)c3)oc2c1F`, the GI50 in the assay with SN12C is > 100 µM (inactive); in the assay on MDA-MB-435, 48.2 µM (inactive); in the assay on NCI-H460, 24.2 µM (inactive); with MDA-N, > 100 µM (inactive); in the assay on LOX IMVI, 33 µM (inactive); in the assay with HCT-15 it was 61.8 µM. In addition, the GI50 with SW-620 was 18.3 µM (inactive); in the assay with SK-MEL-2, 60.7 µM (inactive); in the assay on 786-0 it was 39.5 µM (inactive); in the assay on IGROV-1 it was 38 µM (inactive); in the assay with T47D, > 100 µM (inactive); in the assay with CAKI-1, 2.45 µM (inactive). The GI50 in the assay with MDA-MB-231 was 27.8 µM (inactive); in the assay on NCI-H23, > 100 µM (inactive); in the assay on KM12, 32 µM (inactive); in the assay with OVCAR-3 it was 0.0456 µM (active); in the assay on UACC-62 it was 26.4 µM (inactive); with M14, > 100 µM (inactive). Also, the GI50 in the assay with SF-539 was > 100 µM (inactive).

Take `CC[C@H](C)[C@H]1NC(=O)[C@@H](NC(=O)[C@@H](CC(C)C)N(C)C(=O)C2C=CCN2)[C@@H](C)OC(=O)[C@H](Cc2ccc(OC)cc2)N(C)C(=O)[C@@H]2CCCN2C(=O)[C@H](CC(C)C)NC(=O)[C@@H](C)C(=O)[C@H](C(C)C)OC(=O)C[C@@H]1O` (stereo not given in full) (H-[ξΔPro][dNMeL]T[X37]LP[NMeY](Me); ester 3-C): the GI50 was < 0.005 µM (active) in the assay on SN12C; < 0.005 µM (active) in the assay on MDA-MB-435; < 0.005 µM (active) in the assay with NCI-H460; < 0.005 µM (active) in the assay with MDA-N; < 0.005 µM (active) in the assay on LOX IMVI; 0.0162 µM in the assay on HCT-15. Besides, the GI50 in the assay with SW-620, with SK-MEL-2, with 786-0, in the assay with IGROV-1, in the assay on EKVX and with T47D was < 0.005 µM (active) each time. Besides, the GI50 is 0.0107 µM (active) in the assay on CAKI-1; < 0.005 µM (active) in the assay with MDA-MB-231; < 0.005 µM (active) with NCI-H23; < 0.005 µM (active) in the assay on KM12; < 0.005 µM (active) in the assay on OVCAR-3; < 0.005 µM (active) with UACC-62. Also, the GI50 in the assay on M14 is < 0.005 µM (active).
